In patent publication US4145444A, “Anti-inflammatory agent of benzoyl derivative” (priority 1977, dated 1979):
Read-outs that look alike come from different tables or passages of the source.

What was measured:
thrombus = assay: Inhibiting effect on thrombosis (by-pass between left juglar vein and right carotid artery, silk thread); assay type: in vivo, SD type male rates; conditions: Rattus norvegicus, read-out: Thrombosis inh.: thrombosis inhibition rate
Experimental: The inhibiting effects of the samples of the invention on thrombosis were tested by the following test method.
A 0.5 ml of 50 μ/ml of the heparin physiological saline was added through the polyethylene tube before the first blood circulation. After the blood circulation for 15 minutes, the circulation was stopped in the middle of the tubing at artery side with a pinch cock.
Then, 0.2 ml of the heparin physiological saline was added to remove the blood coagulates on the tubing wall and another new polyethylene tubing filled with the heparin solution and containing a piece of new silk thread was attached between the venous and artery tubing ends.
The blood circulation was reestablished by opening the pinch cock. After 15 minutes, the wet weight of thrombus on the silk thread was similarly measured.
In the same manner, the third circulation was performed and wet weight of thrombus measured.
The amount of thrombus was given by the equation A. [formula] Each sample was suspended in an aqueous solution of sodium carboxymethyl cellulose and the oral dose of the suspension (100 mg/kg) was performed at 5 hours before the first blood circulation.
The amount of thrombus after the oral dose of the sample was calculated in the same manner as that of control circulations.
The thrombosis inhibition rate was given by the equation B. [formula]

hind paws of male rats = assay: Anti-inflammatory effect: acute carragheenin edema method; assay type: in vivo; conditions: Rattus norvegicus; for inhibition in vivo at 100 mg/kg: read-out: Anti-inf.: edema inhibition rate
Experimental: The edema was induced by subcutaneous injection of 1% carragheenin suspension in saline to the hind paws of male rats weighting 150 to 180 g. Each sample was orally given at the dosage of 100 mg/kg just before the inoculation of carragheenin.

platelet = assay: Blood platelet aggregation inhibiting effect (collagen-induced); assay type: cell-based, rabbits; conditions: Oryctolagus cuniculus, Platelet; 10^-4 mole, collagen inducer, rabbit PRP; read-out: Blood platelet agg. inh.: percentage inhibition of platelet aggregation
Text: Male rabbits (Japan original white strain 3.3 to 3.6 kg) were anesthetized with Thiopental sodium and blood was sampled from the carotid artery.

male mice = assay: Analgesic effect: painful stretchings following intraperitoneal 0.7% acetic acid; conditions: Mus musculus, po, read-out: Analgesic: percentage diminition of times of painful stretching
Experimental: Each sample was orally administered in the dosage of 100 mg/kg before injection of acetic acid.

[1] = 100 mg/kg oral, 5 hours before first blood circulation, rats
[2] = 100 mg/kg oral, carragheenin edema, male rats (Table 2)

| Compound | inhibition in vivo at 100 mg/kg (thrombus; [1]) [%] | inhibition in vivo at 100 mg/kg (hind paws of male rats; [2]) [%] | inhibition at 100 µM (platelet) [%] | inhibition in vivo at 100 mg/kg (male mice) [%] | inhibition in vivo at 100 mg/kg (thrombus; po, 5 h) [%] | ED50 (hind paws of male rats; po, read-out: 50% inhibition ED50 (values in brackets)) [mg/kg] | inhibition in vivo at 100 mg/kg (hind paws of male rats; po) [%] |
| --- | --- | --- | --- | --- | --- | --- | --- |
| CCCCc1ccc(C(=O)c2ccc(OC)cc2)cc1 [compound 18] | 24.2 | 41.6 | 9.3 | 20.1 |  |  |  |
| CCCCc1ccc(C(=O)c2ccccc2)cc1 [compound 19] | 7.9 | 63.4 | 18.6 | 30.1 |  |  |  |
| CCCc1ccc(C(=O)c2ccccc2)cc1 [compound 20] | 4.1 | 42.7 | 36.6 | 17.3 |  |  |  |
| CC(C)c1ccc(C(=O)c2ccccc2)cc1 [compound 21] | 5.4 | 37.3 | 8.6 | 16.1 |  |  |  |
| CC(C)(C)c1ccc(C(=O)c2ccccc2)cc1 [compound 22] | 7.9 | 36.4 | 9.5 | 8.2 |  |  |  |
| CCCCCc1ccc(C(=O)c2ccccc2)cc1 [compound 23] | 22.3 | 50.4 | 13.8 | 10.1 |  |  |  |
| CCCCCCc1ccc(C(=O)c2ccccc2)cc1 [compound 24] | 24.3 | 37.6 | 10.5 | 47.7 |  |  |  |
| CCCCCCCc1ccc(C(=O)c2ccccc2)cc1 [compound 25] | 22.1 | 40.8 | 7.8 | 48.6 |  |  |  |
| CCCCCCCCc1ccc(C(=O)c2ccccc2)cc1 [compound 26] | 24.8 | 47.2 | 3.1 | 35.9 |  |  |  |
| O=C(c1ccccc1)c1ccccc1 [compound 27] |  |  | 25.7 | 13.2 | 25.9 | 120 | 47.7 |
| CCCCc1ccc(C(=O)C(=O)c2ccccc2)cc1 [compound 29] | 15.3 | 44.7 | 11.1 | 2.7 |  |  |  |
| Cc1ccc(C(=O)c2ccccc2)c(C)c1C [compound 31] | 23.5 | 35.4 | 18.2 | 9.5 |  |  |  |
| Cc1cc(C)c(C(=O)c2ccccc2)cc1C [compound 32] | 25 | 47.7 | 12.4 | 26.2 |  |  |  |
| CCc1ccc(C(=O)c2ccc(C)cc2)cc1 [compound 33] | 28.3 | 43.9 | 20.5 | 15.5 |  |  |  |
| CCCc1ccc(C(=O)c2ccc(C)cc2)cc1 [compound 34] | 24.5 | 43.1 | 16.4 | 12.1 |  |  |  |
| CCCCc1ccc(C(=O)c2ccc(C)cc2)cc1 [compound 35] | 2.65 | 48.5 | 11.3 | 17.8 |  |  |  |
| CCCCCCc1ccc(C(=O)c2ccc(C)cc2)cc1 [compound 36] | 28.1 | 34.8 | 15.1 | 13.7 |  |  |  |
| Cc1ccc(C(=O)c2ccccc2)c(C)c1 [compound 37] | 5.3 | 39.6 | 17.4 | 9.8 |  |  |  |
| Cc1ccc(C)c(C(=O)c2ccccc2)c1 [compound 38] | 8.3 | 37.5 | 20.9 | 18 |  |  |  |
| CCCCc1ccc(C(=O)Cc2ccccc2)cc1 [compound 39] | 15.9 | 35.9 | 2.6 | 23.1 |  |  |  |
| CCCCc1ccc(C(=O)c2ccccc2C)cc1 [compound 40] | 30.3 | 58.1 | 11.9 | 20.3 |  |  |  |

| Compound | inhibition in vivo at 100 mg/kg (thrombus; [1]) [%] | inhibition in vivo at 100 mg/kg (hind paws of male rats; [2]) [%] | inhibition at 100 µM (platelet) [%] | inhibition in vivo at 100 mg/kg (male mice) [%] | inhibition in vivo at 100 mg/kg (thrombus; po, 5 h) [%] | ED50 (hind paws of male rats; po, read-out: 50% inhibition ED50 (values in brackets)) [mg/kg] | inhibition in vivo at 100 mg/kg (hind paws of male rats; po) [%] |
| --- | --- | --- | --- | --- | --- | --- | --- |
| CCCCCc1ccc(C(=O)c2ccccc2C)cc1 [compound 41] | 28.5 | 47.4 | 14.4 | 14.6 |  |  |  |
| CCCCOc1ccc(C(=O)c2ccccc2)cc1 [compound 42] | 10.7 | 35.8 | 4.4 | 26.8 |  |  |  |
| CCCCc1ccc(C(=O)c2ccc(CCCC)cc2)cc1 [compound 43] | 86 | 34 | 3.5 | 0 |  |  |  |
| CCCCc1ccc(C(=O)c2ccccc2Cl)cc1 [compound 44] | 35.6 | 57.7 | 10.5 | 15.6 |  |  |  |
| CCCCCc1ccc(C(=O)c2ccc(OC)cc2)cc1 [compound 45] | 30.8 | 37.8 | 17.7 | 12.5 |  |  |  |
| CCCCc1ccc(C(=O)c2ccc(F)cc2C)cc1 [compound 46] | 34.5 | 43.4 | 16.5 | 13.4 |  |  |  |
| O=C(Cc1ccccc1)c1ccccc1 [compound 47] |  |  | 18.3 | 13.1 | 15.6 |  | 20.9 |
| Cc1ccc(C(=O)Cc2ccccc2)cc1 [compound 48] | 18.3 | 26 | 20.5 | 12.5 |  |  |  |
| CCCc1ccc(C(=O)Cc2ccccc2)cc1 [compound 49] | 13.4 | 10.7 | 28.5 | 18.2 |  |  |  |
| CCCCCCCCCCc1ccc(C(=O)Cc2ccccc2)cc1 [compound 50] | 28.3 | 25.5 | 8.7 | 16.4 |  |  |  |
| CCCCCCCCCCCc1ccc(C(=O)Cc2ccccc2)cc1 [compound 51] | 13.5 | 24.6 | 9.5 | 18.3 |  |  |  |
| CCCCCCCCCCCCc1ccc(C(=O)Cc2ccccc2)cc1 [compound 52] | 10.1 | 25.5 | 6.8 | 12.5 |  |  |  |
| O=C(C(=O)c1ccccc1)c1ccccc1 [compound 53] |  |  | 10.1 | 14.2 | 19.2 |  | 20.3 |
| Cc1ccc(C(=O)C(=O)c2ccccc2)cc1 [compound 54] |  |  | 15.4 | 11.3 | 20.3 |  | 25.5 |
| CCc1ccc(C(=O)C(=O)c2ccccc2)cc1 [compound 55] | 16.4 | 29 | 23.3 | 15.8 |  |  |  |
| CCCCCCc1ccc(C(=O)C(=O)c2ccccc2)cc1 [compound 56] | 15.1 | 14.9 | 20.3 | 20.5 |  |  |  |
| COc1ccc(C(=O)Cc2ccccc2)cc1 [compound 57] | 6.5 | 16.1 | 12.5 | 10.3 |  |  |  |
| CCCOc1ccc(C(=O)Cc2ccccc2)cc1 [compound 58] | 14.6 | 15.3 | 20.1 | 19.8 |  |  |  |
| CCCCCOc1ccc(C(=O)Cc2ccccc2)cc1 [compound 59] | 14.1 | 20.7 | 25.6 | 22.8 |  |  |  |
| COc1ccc(C(=O)Cc2ccc(Cl)cc2)cc1 [compound 60] | 12.3 | 13.2 | 4 | 6.3 |  |  |  |
| CCCCOc1ccc(C(=O)Cc2ccc(Cl)cc2)cc1 [compound 61] | 8.5 | 16.7 | 15.8 | 15.1 |  |  |  |
